Source: paper PMC6539231, “4,5-Diaryl 3(2H)Furanones: Anti-Inflammatory Activity and Influence on Cancer Growth” (Molecules, 2019)
“Also recorded” adds a separate entry of the source. Like-named read-outs stand apart in the source and are kept apart here. Blank lines part the entries; values can stand above or below the compound they belong to.

Experiments:
[1] = test system: carrageenan mice paw oedema; test: Carrageenin-induced mouse paw edema; format: in vivo, mice (AKR); details: for inhibition in vivo at 0.1 µmol/g: Mus musculus, ip, read-out: CPE, %; for anti-inflammatory activity, reference compounds: dose not given
Description: From the data of Table 7 it is obvious that anti-inflammatory activity of alkylsulfones and sulfoxides of furan-3(2H)-ones, including annelated derivatives are very similar.
The anti-inflammatory activity of compounds was performed using the carrageenan mice paw oedema assay. Animal of both sex (AKR), with exception of pregnant females were housed under standard conditions, receiving only water during the experimental period. […] The detailed description of the whole experiment reported previously. All the biological experiments were carried out in full compliance with the European Convention for the Protection of Vertebrate Animals used for Experimental or Other Scientific Purposes (ETS NO 123, Strasbourg, 03/18/1986): Strasbourg (France). European Treaty Series, № 123, March 18, 1986. 11 P. The project identification code and date of approval is 350880/3468 of 15-12-2014, University of Thessaloniki.

human recombinant COX-2 = molecular target: T1, human recombinant COX-2 (Homo sapiens, UniProt P35354); test: In vitro COX-2 inhibition (Cayman COX Inhibitor Screening Assay kit); format: biochemical; details: for % Inhibition (COX-2): Compound concentration 50 μΜ, arachidonic acid 0.1 μM; for IC50: read-out: Experimental IC50 COX-2
T1 construct: purchased Cayman Chemical Co., Ann Arbor, MI, USA
T1 sequence (P35354 18-604): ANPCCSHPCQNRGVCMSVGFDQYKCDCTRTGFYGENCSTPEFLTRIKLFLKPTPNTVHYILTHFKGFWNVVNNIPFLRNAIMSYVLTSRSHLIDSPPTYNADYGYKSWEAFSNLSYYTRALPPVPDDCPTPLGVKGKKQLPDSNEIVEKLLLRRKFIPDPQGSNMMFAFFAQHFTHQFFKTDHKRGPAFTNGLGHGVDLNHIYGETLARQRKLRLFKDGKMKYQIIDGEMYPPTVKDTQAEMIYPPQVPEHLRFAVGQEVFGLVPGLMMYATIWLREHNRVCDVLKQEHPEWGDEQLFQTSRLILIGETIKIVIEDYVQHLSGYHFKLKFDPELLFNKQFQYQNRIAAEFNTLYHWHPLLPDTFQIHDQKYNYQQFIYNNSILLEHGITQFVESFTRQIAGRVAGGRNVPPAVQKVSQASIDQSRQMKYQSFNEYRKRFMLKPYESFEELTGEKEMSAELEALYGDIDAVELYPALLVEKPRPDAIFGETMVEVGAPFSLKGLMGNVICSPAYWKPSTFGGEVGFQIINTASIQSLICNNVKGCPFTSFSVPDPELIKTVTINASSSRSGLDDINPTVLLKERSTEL
Description: (§1) The COX-1 and COX-2 activities of the compounds were measured using ovine COX-1 and human recombinant COX-2 enzymes included in the “COX Inhibitor Screening Assay” kit provided by Cayman (Cayman Chemical Co., Ann Arbor, MI, USA) as reported previously

ovine COX-1 = molecular target: T2, ovine COX-1 (Ovis aries, UniProt P05979); test: In vitro COX-1 inhibition (Cayman COX Inhibitor Screening Assay kit); format: biochemical; details: for % Inhibition (COX-1): Compound concentration 50 μΜ, arachidonic acid 0.1 μM; for IC50: read-out: Experimental IC50 COX-1
T2 construct: purchased Cayman Chemical Co., Ann Arbor, MI, USA
T2 sequence (P05979 25-600): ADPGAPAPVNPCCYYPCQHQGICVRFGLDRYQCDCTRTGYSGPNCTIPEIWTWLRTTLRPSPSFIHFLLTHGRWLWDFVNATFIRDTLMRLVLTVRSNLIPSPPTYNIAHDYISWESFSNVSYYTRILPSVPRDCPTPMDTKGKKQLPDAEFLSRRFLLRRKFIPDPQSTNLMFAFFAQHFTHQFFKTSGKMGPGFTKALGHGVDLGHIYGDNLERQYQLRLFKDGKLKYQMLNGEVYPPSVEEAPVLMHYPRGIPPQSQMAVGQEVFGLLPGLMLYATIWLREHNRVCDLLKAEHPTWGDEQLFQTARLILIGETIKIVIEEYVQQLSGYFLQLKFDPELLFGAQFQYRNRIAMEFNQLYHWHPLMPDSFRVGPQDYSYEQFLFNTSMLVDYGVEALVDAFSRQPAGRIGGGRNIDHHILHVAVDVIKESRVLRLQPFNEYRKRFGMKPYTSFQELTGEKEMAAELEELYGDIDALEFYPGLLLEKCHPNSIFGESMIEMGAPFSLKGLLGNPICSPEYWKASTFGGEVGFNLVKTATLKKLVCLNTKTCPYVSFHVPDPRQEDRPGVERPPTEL
Description: as §1

MCF-7 cells [2] = test: Growth inhibition assay, MCF-7 cells; format: cell-based, human; details: 48 h exposure
MCF-7 cells [3] = test: Combination (synergy) growth assay in MCF-7 cells, Combination Index; format: cell-based, human; details: MCF-7, 48 h; for Combination Effect with 5-fluorouracil / CI, combination with 5-fluorouracil: + 0.3 μM 5-fu; for % Cell Growth, combination with 5-fluorouracil: + 0.3 μM 5-fu (21.3 μM 1h, 2.9 μM 1g, 3.8 μM x-1, 29 μM cel); for CI, combination with 5-fluorouracil / CI, combination with gefitinib: CI <1 synergy, >1 antagonism; for Combination Effect with gefitinib / CI, combination with gefitinib: + 70 μM gef; for % Cell Growth, combination with gefitinib: + 70 μM gef (27.5 μM 1h, 10 μM 1g, 10 μM x-1, 29 μM cel)
Description: In addition, exposure of the MCF-7 cells to each of the compounds in combination with each one of the two anti-neoplastic drugs was performed in order to study the synergistic effect of the compounds. The results are shown in Table 9 and Figure 5 and Figure 6.

HSC-3 cells = test: Growth inhibition assay, HSC-3 cells
MCF-7 cells [4] = test: Combination (synergy) growth assay in MCF-7 cells, Combination Index; format: cell-based, human; details: MCF-7, 48 h
[5] = Dose 0.1 µmol/g, intraperitoneally, simultaneously with carrageenin

Compound: C[S+]([O-])c1ccc(C2=C(c3ccccc3)OC(C)(C)C2=O)cc1 (stereo not drawn) [1b, 2,2-Dimethyl-4-[4′-(methylsulfinyl)phenyl]-5-phenylfuran-3(2H)-one]
- inhibition in vivo at 0.1 µmol/g [1, 5]: 47%

Compound: C[S+]([O-])c1ccc(C2=C(c3cccc(Cl)c3)OC(C)(C)C2=O)cc1 (stereo not drawn) [1n, 5-(3′-Chlorophenyl)-2,2-dimethyl-4-[4′-(methylsulfinyl)phenyl]-furan-3(2H)-one]
- inhibition in vivo at 0.1 µmol/g [1, 5]: 51%

Compound: CNS(=O)(=O)c1ccc(C2=C(c3ccc(Cl)cc3)OC(C)(C)C2=O)cc1 [1vMe, 5-(4′-Chlorophenyl)-2,2-dimethyl-4-[4′-(methylaminosulfonyl)phenyl]-furan-3(2H)-one]
- melting point: 204 to 205 °C

Compound: O=c1[nH]cc(F)c(=O)[nH]1 [5-Fluorouracil, reference compound]
- IC50 (MCF-7 cells [2]): 0.03 µM

Compound: Cc1ccc(-c2cc(C(F)(F)F)nn2-c2ccc(S(N)(=O)=O)cc2)cc1 [Celecoxib, reference compound]
- IC50 (MCF-7 cells [2]): 29.2 µM
- IC50 (MCF-7 cells [2]; Homo sapiens, MCF7, 48 h): 29.2 µM
- Combination Effect with 5-fluorouracil (MCF-7 cells [3]): antagonism
- % Cell Growth, combination with 5-fluorouracil (MCF-7 cells [3]): 49.3%
- CI, combination with 5-fluorouracil (MCF-7 cells [3]): 1.57
- CI, combination with 5-fluorouracil (MCF-7 cells [3]; listed as cel): >1
- Combination Effect with gefitinib (MCF-7 cells [3]): antagonism
- % Cell Growth, combination with gefitinib (MCF-7 cells [3]): 56.8%
- CI, combination with gefitinib (MCF-7 cells [3]): 9.8
- CI, combination with gefitinib (MCF-7 cells [3]; listed as cel): >1
- anti-inflammatory activity, reference compounds [1]: 64.6%

Compound: CC1(C)OC(c2ccc(S(C)(=O)=O)cc2)=C(c2ccccc2)C1=O [E-1, reference compound]
- inhibition in vivo at 0.1 µmol/g [1, 5]: 57.7%

Compound: CC1(C)OC(c2ccc(S(C)(=O)=O)cc2)=C(c2cccc(Cl)c2)C1=O [E-3, reference compound]
- inhibition in vivo at 0.1 µmol/g [1, 5]: 52.1%

Compound: COc1ccc2cc([C@H](C)C(=O)O)ccc2c1 [Naproxen, reference compound]
- IC50 (human recombinant COX-2): 50 µM

Compound: COc1ccc2c(c1)c(CC(=O)O)c(C)n2C(=O)c1ccc(Cl)cc1 [indomethacin, reference compound]
- anti-inflammatory activity, reference compounds [1]: 47%

Compound: CC1(C)Oc2c(c3ccc(S(C)(=O)=O)cc3c3ccccc23)C1=O [x-1, 2′,2′-dimethyl-3-(methylsulfonyl)-phenanthro[9,10-b]furan-3′(2′H)-one]
- IC50 (MCF-7 cells [2]; Homo sapiens, MCF7, 48 h): 10 µM
- melting point: 222 to 224 °C
- HSC-3 % Cell Growth (HSC-3 cells; Compound concentration: 10μΜ): 91 ± 10%
- IC50 (HSC-3 cells; Homo sapiens, HSC-3, 48 h, read-out: HSC-3 IC50 Values): 60 µM
- Combination Effect with 5-fluorouracil (MCF-7 cells [3]): antagonistic effect; also recorded: antagonism
- % Cell Growth, combination with 5-fluorouracil (MCF-7 cells [3]): 21.0%
- CI, combination with 5-fluorouracil (MCF-7 cells [3]): >1
- Combination Effect with gefitinib (MCF-7 cells [3]): synergism
- % Cell Growth, combination with gefitinib (MCF-7 cells [3]): 24.3%
- CI, combination with gefitinib (MCF-7 cells [3]): 0.260 ± 0.033 < 1
- CI, combination with gefitinib (MCF-7 cells [3]; listed as X-1): 0.260
- inhibition in vivo at 0.1 µmol/g [1]: 45%
- Combination Effect with celecoxib (MCF-7 cells [4]; + 29 μM cel): antagonism
- % Cell Growth, combination with celecoxib (MCF-7 cells [4]; + 29 μM cel (21.3 μM 1h, 2.9 μM 1g, 3.8 μM x-1)): 60.6%
- CI, combination with celecoxib (MCF-7 cells [4]; + 29 μM cel, CI <1 synergy, >1 antagonism): >1

Compound: CC1(C)Oc2c(c3ccc(S(C)(=O)=O)cc3c3cc(F)ccc23)C1=O [x-2, 3-Fluoro-2′,2′-dimethyl-6-(methylsulfonyl)-phenanthro[9,10-b]furan-3′(2′H)-one]
- melting point: 242 to 244 °C
- inhibition in vivo at 0.1 µmol/g [1]: 40%

Second part, led by results:

- % Inhibition (COX-2) (human recombinant COX-2): 0%
- % Inhibition (COX-1) (ovine COX-1): 0%
Compound: CC1(C)OC(c2ccccc2)=C(c2ccc(S(C)(=O)=O)cc2)C1=O [1c, 2,2-Dimethyl-4-[4′-(methylsulfonyl)phenyl]-5-phenylfuran-3(2H)-one]
- inhibition in vivo at 0.1 µmol/g [1, 5]: 50.2%

- % Inhibition (COX-2) (human recombinant COX-2): 0%
- % Inhibition (COX-1) (ovine COX-1): 0%
Compound: C[S+]([O-])c1ccc(C2=C(c3ccc(Cl)cc3)OC(C)(C)C2=O)cc1 (stereo not drawn) [1j]
- inhibition in vivo at 0.1 µmol/g [1, 5]: 54%

- melting point: 223 to 225 °C
- % Inhibition (COX-2) (human recombinant COX-2): 6%
- IC50 (human recombinant COX-2): > 50 µM
- % Inhibition (COX-1) (ovine COX-1): 80%
- IC50 (ovine COX-1): 29 µM
Compound: CC1(C)OC(c2ccc(Cl)cc2)=C(c2ccc(S(C)(=O)=O)cc2)C1=O [1k, 5-(4′-Chlorophenyl)-2,2-dimethyl-4-[4′-(methylsulfonyl)phenyl]-furan-3(2H)-one]
- inhibition in vivo at 0.1 µmol/g [1, 5]: 50.6%

- melting point: 219 to 221 °C
- IC50 (human recombinant COX-2): 71 µM
- IC50 (ovine COX-1): 22 µM
Compound: CC1(C)OC(c2cccc(Cl)c2)=C(c2ccc(S(C)(=O)=O)cc2)C1=O [1o, 5-(3′-Chlorophenyl)-2,2-dimethyl-4-[4′-(methylsulfonyl)phenyl]-furan-3(2H)-one]
- inhibition in vivo at 0.1 µmol/g [1, 5]: 50.7%

- melting point: 158 to 160 °C
Compound: CC1(C)OC(c2ccccc2)=C(c2ccc(S(N)(=O)=O)cc2)C1=O [1q, 5-(4′-Phenyl)-2,2-dimethyl-4-[4′-(aminosulfonyl)phenyl]-furan-3(2H)-one]
- inhibition in vivo at 0.1 µmol/g [1, 5]: 38%

- melting point: 198 to 200 °C
Compound: CC1(C)OC(c2cccc(Cl)c2)=C(c2ccc(S(N)(=O)=O)cc2)C1=O [1u, 5-(3′-Chlorophenyl)-2,2-dimethyl-4-[4′-(aminosulfonyl)phenyl]-furan-3(2H)-one]

- melting point: 224 to 225 °C
- IC50 (human recombinant COX-2): 20 µM
- IC50 (ovine COX-1): 28 µM
Compound: CC1(C)OC(c2ccc(Cl)cc2)=C(c2ccc(S(N)(=O)=O)cc2)C1=O [1v, 5-(4′-Chlorophenyl)-2,2-dimethyl-4-[4′-(aminosulfonyl)phenyl]-furan-3(2H)-one]
- inhibition in vivo at 0.1 µmol/g [1, 5]: 44.3%

- melting point: 167 to 169 °C
- IC50 (human recombinant COX-2): > 50 µM
- IC50 (ovine COX-1): 70 µM
Compound: CC1(C)OC(c2ccc(F)cc2)=C(c2ccc(S(N)(=O)=O)cc2)C1=O [1w, 5-(4′-Fluorophenyl)-2,2-dimethyl-4-[4′-(aminosulfonyl)phenyl]-furan-3(2H)-one]
- inhibition in vivo at 0.1 µmol/g [1, 5]: 43.7%
